Laboratory results: patent US5929039A, “Method for treating cardiac dysfunction and pharmaceutical compositions useful therefor” (Baker Medical Research Institute, priority 1993, dated 1999)
Like-named read-outs stand apart in the source and are kept apart here.

Assays:
[1] = tested on: in situ perfused rat hearts; conditions: for Reperfusion-induced arrhythmias VF % incidence / Reperfusion-induced arrhythmias VT % incidence: control 83; for arrhythmias occurring during the ischaemic phase: at the higher concentrations
Protocol: (§1) A model of in situ perfused rat hearts subjected to 20 minutes coronary artery occlusion to induce ischaemia, followed by reperfusion was used to investigate reperfusion-induced arrhythmias.
(§2) Rats (250-300 g) were anaesthetised (pentobarbitone 60 mg/kg, I.P.) and heparinised (200 U/rat I.V.) The thorax was then opened and a metal cannula (ID 1 mm) inserted and tied into the ascending aorta, to commence Langendorff perfusion in situ (31). The interval from opening the chest to commencing heart perfusion was between 50 and 70 seconds. The perfusate was Krebs buffer, with coronary flow controlled by a Ismatac peristaltic pump at a rate of 5 ml/g heart weight/min for the non-ischaemic perfusion. At this flow rate the coronary perfusion pressure was between 32-38 mmHg, measured by pressure transducer (Gould Statham model p23) connected to the sidearm of the perfusion line. Following aortic cancellation, pulmonary vessels were tied off. In some preparations, ventricular pressure was measured by inserting a Millar micro-tip transducer catheter into the left ventricular cavity via the apex. All parameters--coronary perfusion pressure, ventricular pressure, and epicardial ECG, were constantly recorded on a Grass model 7 polygraph. Two hearts were perfused and simultaneously studied.
(§3) A silk suture (4.0) was positioned loosely around the left coronary artery 2-3 mm from its origin. Two silk releasing rings were placed around the suture for subsequent release of occlusion. Successful occlusion of the artery, inducing regional ischaemia, was indicated by increases in coronary perfusion pressure of at least 30%. Perfusion pressure was adjusted to non-ischaemic perfusion levels during the ischaemic period.
(§4) Drugs were added to the perfusion via a Harvard Model 22 pump. The drug flow was less than 1% of perfusion flow to ensure constant perfusate parameters. Unless mentioned otherwise, the drugs were present 10 minutes before, and during the entire ischaemic and reperfusion periods.
(§5) Heart preparations were allowed to stabilise for at least 20 minutes prior to commencing studies. Following 10 minute drug incubation, the left coronary artery was ligated to induce local ischaemia, for a period of 20 minutes. At the end of this ischaemic period, the ligature was released and hearts perfused at pre-ischaemic flow for a period of 5 minutes. Ventricular arrhythmias, occurring during ischaemia or during the first 2 minutes of reperfusion were defined according to the Lambeth Conventions (32).
Incidence of arrhythmias was analysed using a .chi.^2 test, with n≥8 for each group.

[2] = tested on: inositol phosphate accumulation in heart tissue; assay: Inositol phosphate accumulation in healthy (normoxic) heart tissue; set-up: species or system rat
Protocol: (§6) Adult male sprague dawley rats 250-300 g were used. Where indicated, rats were treated with reserpine (5 mg/kg I.P. for 18 hrs prior to killing) to deplete endogenous noradrenaline stores.. Rats were heparinized 1 U/g I.P. 30 minutes prior to killing by decapitation. Hearts were rapidly excised and immediately chilled in ice-cold saline. Under ice-cold solution, hearts were cannulated via the ascending aorta as described by Langendorff and perfused retrogradely at a rate of 5 ml/min with HEPES-buffered Krebs solution equilibrated with 5%CO2 -95%O2 at 37° C. Initial perfusion was in a non-recirculating manner to remove internal blood. Hearts were allowed to warm up gradually and, when free of internal blood, transferred to a 37° C. water-jacketed organ bath containing carbogenated Krebs medium, and perfusion continued in a recirculating manner. Following a 15 minute equilibration period, hearts were labelled with [^3 H]-inositol, 2 μCi/ml for 2 h. Hearts were monitored throughout the labelling period for strong rhythmic beating.
(§7) Inositol phosphates were extracted from ventricle samples in 3.5 ml ice-cold 5% trichloroacetic acid (TCA), 2.5 mM EDTA, 5 mM phytate solution, as described previously (21). Briefly, ventricles were homogenised with two 10 second passes of a "Polytron" homogenizer separated by 15 second periods on ice. Samples were homogenised further using a Potter-Elvejheim homogeniser followed by brief sonication. Homogenised samples were centrifuged (5000 rpm, 10 min, 4° C.) to remove TCA insoluble material. Supernatants were collected, and the remaining pellet re-extracted in 1.5 ml TCA, EDTA, phytate. Supernatants were pooled and freon, tri-n-ocylamine (1:1 v/v 0.75 ml:1 ml TCA solution) was added, mixed thoroughly, and phases separated by low speed centrifugation (2000 rpm, 10 min 4° C.). The resultant aqueous phase, containing inositol phosphates was collected and treated with proteinase K (50 μg/ml, 2 hr, 50° C.). This process was necessary to preserve the chromatography column. Treated samples were passed through a 1 ml Dowex-50 column (4% cross-linked 4-400 mesh size) and eluted with 1 ml water (22). Urea (0.05 M final) was added (23) and samples lyophilized prior to high performance liquid chromatography (HPLC) analysis. Recovery of inositol phosphates using this method was greater than 95% for each isomer, as estimated by addition of [^3 H]-labelled standards to extractions of unlabelled hearts.
Inositol phosphates were separated by an anion-exchange HPLC system using a Whatman Partisil 10μ SAX column in a Waters Radial Compression Unit, employing a complex ammonium phosphate gradient, pH 3.8 from 0-2 M as described previously (24). Inositol phosphates were detected and quantitated using an on-line […] (model CR, Radiomatic Instruments) All peaks were identified by comparison with commercial standards. Nucleotide standards AMP, ADP, and ATP were run with samples to assess column performance.

[3] = tested on: isolated neonatal cardiomyocytes; assay: Inositol phosphate accumulation in isolated neonatal cardiomyocytes; type: cell-based
PI-PLC kidney me = conditions: membrane enzyme; from the literature (35); cited from earlier work
PC-PLD brain = conditions: read-out: average EC50 PC-PLD brain; from the literature (35); cited from earlier work
PI-PLC heart rep = assay: Inhibition of PI-PLC in hearts under reperfusion conditions; set-up: species or system rat
Protocol: as §6
(§8) Following labelling, the [^3 H]-inositol-containing medium was removed, and replaced with Krebs medium containing propranolol (10^-6 M) and lithium chloride (50 mM) to block β-adrenergic receptors and to inhibit InsP metabolism by InsP 1'-phosphatase respectively (20). Hearts were perfused with propranolol, LiCi solution for 10 minutes prior to ischaemia. Antagonists, when administered, were included in this 10 minute preincubation. Normothermic global ischaemia was induced by terminating perfusion for various times up to 30 minutes. Reperfusion was examined following a 20 minute ischaemic period by resuming perfusion at 5 ml/min. Reactions were terminated by freezing hearts in liquid N2 following excision at the atrioventricular junction. Frozen ventricles were weighed and inositol phosphates extracted as described below.
Mass of Ins(1,4,5)P3 was measured using a competitive binding assay (Amersham TRK 1000) essentially as described previously (26). […]

PI-PLC kidney cy = conditions: cytosolic enzyme; from the literature (35); cited from earlier work
Ins(1,4,5)P3 release [4] = assay: Ins(1,4,5)P3 mass in isolated perfused rat hearts, 2 min reperfusion after 20 min global ischaemia (competitive binding assay); conditions: for Ins(1,4,5)P3 mass: 2 min reperfusion after 20 min global ischaemia, control 200 ± 18
Protocol: as §6, §8, §7
Mass of Ins(1,4,5)P3 was measured using a competitive binding assay (Amersham TRK 1000) essentially as described previously (26). Ventricle samples were prepared as described above except for the omission of [^3 H]-label during the 2 hr perfusion of hearts prior to ischaemia, and for the use of 5 mm ATP instead of phytate in the extraction procedure.
Protein concentration was determined in aliquots of TCA pellet following InsP extraction using a modified Lowry method with Bovine Serum Albumin as a standard.
Values presented are mean ±SEM, for n=4 unless otherwise stated. Statistical analysis of results involved Students' unpaired "t-test" for all InsP data.

Ins(1,4,5)P3 release [5] = assay: Thrombin-stimulated release of Ins(1,4,5)P3 in heart tissue; conditions: at concentrations similar to those inhibiting the noradrenaline response under reperfusion
[6] = tested on: hearts from reserpinized rats; assay: Arrhythmic effect of thrombin under reperfusion conditions, perfused hearts from reserpinized rats; set-up: species or system rat; conditions: reserpinized hearts
Protocol: as §1, §2, §3, §4, §5
The finding that thrombin directly stimulated release of Ins(1,4,5)P3 in heart indicates the possibility that thrombin might cause arrhythmias directly via this mechanism. Experiments were performed using hearts from reserpinized rats so that arrhythmic events initiated by noradrenaline were eliminated. Reperfusion arrhythmias were not observed in hearts from reserpinized animals. […] Furthermore, these arrhythmias were inhibited by gentamicin, indicating a relationship to release of Ins(1,4,5)P3 (Table 2).

rats = tested on: rats
Protocol: Rats were not heparinised so that effects of thrombin will be contributory to observed arrhythmias.
Rats were anaesthetised with pentobarbitone (60 mg/Kg IP) and artificially ventilated with room air. The chests were opened via the forth intercostal space, and the heart exposed. A 4.0 suture was placed around the left coronary artery and then passed through a guided polyethylene cannula. The thorax was closed leaving the threaded cannula outside the chest. The right carotid artery was cannulated for recording of arterial blood pressure. After stabilisation for 20-30 minutes, the left coronary artery was ligated by pulling the ends of the ligature through the tube and securing them by clamping the tube together with the threads. The ischaemic period was 10 minutes followed by reperfusion. Arterial blood pressure and a lead II ECG was recorded 3 minutes before and during ischaemia, and for the first 5 minutes of reperfusion. […] The size of the ischaemic area was determined at the end of the experiment by the dye method. […] Gentamicin was infused at a dose of 2.5-10 mg/Kg/min prior to initiation of ischaemia and maintained throughout the protocol.

| Compound | EC50 (PI-PLC kidney me) [µM] | effect on reperfusion arrhythmias [1] | Reperfusion-induced arrhythmias VF % incidence ([1]; 0.015 mM) [%] | Reperfusion-induced arrhythmias VT % incidence ([1]; 0.015 mM) [%] | Reperfusion-induced arrhythmias VF % incidence ([1]; 0.15 mM) [%] | Reperfusion-induced arrhythmias VT % incidence ([1]; 0.15 mM) [%] | Reperfusion-induced arrhythmias VF % incidence ([1]; 1.5 mM) [%] | Reperfusion-induced arrhythmias VT % incidence ([1]; 1.5 mM) [%] | arrhythmias occurring during the ischaemic phase [1] | EC50 (PI-PLC heart rep) [µM] | EC50 (PI-PLC kidney cy) [µM] | potency of inhibition of reperfusion-induced Ins(1,4,5)P3 release relative to neomycin (Ins(1,4,5)P3 release [4]) | Ins(1,4,5)P3 mass (Ins(1,4,5)P3 release [4]; 0.015 mM) [pmol/mg protein] | Ins(1,4,5)P3 mass (Ins(1,4,5)P3 release [4]; 0.15 mM) [pmol/mg protein] | Ins(1,4,5)P3 mass (Ins(1,4,5)P3 release [4]; 1.5 mM) [pmol/mg protein] | also measured |
| --- | --- | --- | --- | --- | --- | --- | --- | --- | --- | --- | --- | --- | --- | --- | --- | --- |
| COc1ccc2c(c1)CC[C@@H]1[C@@H]2CC[C@]2(C)[C@@H](NCCCCCCN3C(=O)C=CC3=O)CC[C@@H]12 [U-73122] | – | – | – | – | – | – | – | – | – | – | – | – | – | – | – | anti-arrhythmic activity [1]: without anti-arrhythmic activity; VF% ([1]; 10^-6 M, n 12, control 63): 61%; VT% ([1]; 10^-6 M, n 12, control 100): 88%; release of Ins(1,4,5)P3 in intact heart preparations [2]: did not inhibit; inhibition of accumulation of inositol phosphates ([2]; heart tissue under noradrenaline stimulation): did not inhibit; inhibition of accumulation of inositol phosphates [3]: fully effective inhibitor |
| [H]/N=C(/N)N[C@H]1[C@H](O)[C@@H](O)[C@H](O[C@@H]2O[C@@H](C)[C@](O)(C=O)[C@H]2O[C@@H]2O[C@@H](CO)[C@H](O)[C@@H](O)[C@@H]2NC)[C@@H](N/C(N)=N\[H])[C@@H]1O [streptomycin] | 2850 | inhibited | 27 | 45 | 6 | 25 | 27 | 45 | partial inhibition | 150 | 380 | more potent inhibitors | 201 ± 16 | 167 ± 5 | 94 ± 11 | EC50 (PC-PLD brain): 125 µM |
| gentamicin | 500 | inhibited | 25 | 58 | 27 | 27 | 8 | 17 | partial inhibition | 15 | 130 | more potent inhibitors | 145 ± 2 | 136 ± 22 | 102 ± 17 | inhibition of thrombin-stimulated release of Ins(1,4,5)P3 (Ins(1,4,5)P3 release [5]): inhibited; rank of potency against reperfusion arrhythmias [1]: most potent agent tested; thrombin-induced reperfusion arrhythmias [6]: inhibited; size of ischaemic area vs control animals (rats; dye method, 2.5-10 mg/Kg/min): no difference; arrhythmias occurring under ischaemic conditions in vivo (rats; infused 2.5-10 mg/Kg/min): effective; development of reperfusion arrhythmias in vivo (rats; infused 2.5-10 mg/Kg/min): inhibited; VF% reperfusion arrhythmias in vivo (rats; infused 2.5-10 mg/Kg/min, 10 min occlusion then reperfusion, n 10, control 68): 0%; VT% reperfusion arrhythmias in vivo (rats; infused 2.5-10 mg/Kg/min, 10 min occlusion then reperfusion, n 10, control 100): 30% |
